ChEMBL document CHEMBL5465560, “Selectivity Literature for EUbOPEN Chemogenomic Library” (2024)
Blank lines part the entries; values can stand above or below the compound they belong to.

Tests used:
[1] = molecular target: T1, Uncharacterized serine/threonine-protein kinase SBK3 (Homo sapiens) (UniProt P0C264); assay: Selectivity interaction (KinomeScan (DiscoverX)) EUB0001619a SBK3; details: at 1 µM
T1 sequence (whole entry): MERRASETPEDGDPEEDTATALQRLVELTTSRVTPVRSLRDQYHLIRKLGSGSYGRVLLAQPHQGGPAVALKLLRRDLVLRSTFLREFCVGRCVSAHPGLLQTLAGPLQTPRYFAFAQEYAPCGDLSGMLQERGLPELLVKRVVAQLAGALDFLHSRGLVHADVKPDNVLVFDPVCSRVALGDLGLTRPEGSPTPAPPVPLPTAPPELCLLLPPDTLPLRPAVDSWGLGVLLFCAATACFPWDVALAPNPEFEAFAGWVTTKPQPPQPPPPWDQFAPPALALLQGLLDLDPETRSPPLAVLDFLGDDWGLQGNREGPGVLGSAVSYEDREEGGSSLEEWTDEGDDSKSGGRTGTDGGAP

[2] = molecular target: T2, Histone-lysine N-methyltransferase SETD7 (Homo sapiens) (UniProt Q8WTS6); details: at 1 µM
T2 sequence (whole entry): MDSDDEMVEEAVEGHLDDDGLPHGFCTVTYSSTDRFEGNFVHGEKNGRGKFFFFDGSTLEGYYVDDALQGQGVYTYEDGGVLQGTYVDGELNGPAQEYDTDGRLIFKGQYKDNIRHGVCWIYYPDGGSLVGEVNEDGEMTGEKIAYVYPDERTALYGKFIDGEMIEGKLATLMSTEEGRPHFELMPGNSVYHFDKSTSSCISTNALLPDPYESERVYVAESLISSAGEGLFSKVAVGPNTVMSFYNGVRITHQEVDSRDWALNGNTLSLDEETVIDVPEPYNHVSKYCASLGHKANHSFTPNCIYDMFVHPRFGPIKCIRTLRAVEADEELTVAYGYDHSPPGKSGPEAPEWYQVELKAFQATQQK

[3] = molecular target: T3, Serine/threonine-protein kinase greatwall (Homo sapiens) (UniProt Q96GX5); assay: Selectivity interaction (ActivX KiNativ screen (kinase selectivity in THP-1 cell lysates)) EUB0000639a MASTL; assay type: subcellular; details: lysate, at 5 µM
T3 sequence (whole entry): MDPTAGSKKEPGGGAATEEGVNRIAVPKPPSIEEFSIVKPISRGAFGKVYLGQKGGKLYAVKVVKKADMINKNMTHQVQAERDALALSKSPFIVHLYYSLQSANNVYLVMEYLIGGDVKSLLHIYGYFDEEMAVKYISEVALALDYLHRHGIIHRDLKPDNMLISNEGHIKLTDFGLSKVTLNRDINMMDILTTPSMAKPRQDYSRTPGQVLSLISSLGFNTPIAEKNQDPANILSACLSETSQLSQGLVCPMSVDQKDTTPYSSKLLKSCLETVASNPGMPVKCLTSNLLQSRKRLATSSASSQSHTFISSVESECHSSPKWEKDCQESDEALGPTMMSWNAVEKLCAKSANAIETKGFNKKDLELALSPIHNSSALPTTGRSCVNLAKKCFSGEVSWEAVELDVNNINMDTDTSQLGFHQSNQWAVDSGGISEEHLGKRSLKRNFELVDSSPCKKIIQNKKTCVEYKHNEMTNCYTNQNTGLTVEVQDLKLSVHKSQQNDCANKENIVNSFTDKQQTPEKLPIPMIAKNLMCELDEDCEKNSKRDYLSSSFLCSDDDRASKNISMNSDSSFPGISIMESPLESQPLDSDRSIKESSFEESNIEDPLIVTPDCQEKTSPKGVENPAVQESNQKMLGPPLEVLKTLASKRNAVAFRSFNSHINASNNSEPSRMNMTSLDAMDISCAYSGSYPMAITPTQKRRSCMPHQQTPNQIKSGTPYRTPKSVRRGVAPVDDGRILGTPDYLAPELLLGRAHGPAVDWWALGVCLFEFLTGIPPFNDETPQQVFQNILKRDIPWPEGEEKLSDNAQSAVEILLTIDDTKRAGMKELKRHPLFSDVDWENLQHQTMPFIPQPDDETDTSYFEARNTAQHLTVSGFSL

[4] = molecular target: T4, Muscarinic acetylcholine receptor M2 (Homo sapiens) (UniProt P08172); assay: Selectivity interaction (Safety Panel 44tm (Eurofins)) EUB0000162b CHRM2; details: at 10 µM
T4 sequence (whole entry): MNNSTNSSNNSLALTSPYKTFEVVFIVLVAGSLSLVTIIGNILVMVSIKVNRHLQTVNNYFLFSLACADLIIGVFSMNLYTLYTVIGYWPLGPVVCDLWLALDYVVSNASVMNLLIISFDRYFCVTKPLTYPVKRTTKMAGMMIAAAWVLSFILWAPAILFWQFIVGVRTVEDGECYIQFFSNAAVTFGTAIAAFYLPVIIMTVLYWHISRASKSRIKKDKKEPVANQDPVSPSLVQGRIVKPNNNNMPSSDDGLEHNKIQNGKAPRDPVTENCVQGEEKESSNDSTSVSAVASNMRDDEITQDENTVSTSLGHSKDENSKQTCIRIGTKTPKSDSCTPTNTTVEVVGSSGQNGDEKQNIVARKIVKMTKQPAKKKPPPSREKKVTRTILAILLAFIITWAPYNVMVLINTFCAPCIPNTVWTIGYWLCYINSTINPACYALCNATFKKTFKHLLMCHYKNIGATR

Structure (SMILES): N#Cc1cccc(-c2c[nH]c3ncnc(N4CCOCC4)c23)c1
% of control [1]: 100%

% activity [2]: > 90%
Structure (SMILES): CNCCN1CCC(c2cc(CN(C)C(=O)c3cccc(Oc4ccccc4)c3)ccn2)CC1

% of inhibition [3]: 77.2%
Structure (SMILES): CC[C@@H]1[C@H](F)C(=O)N[C@@H]1COc1nccc2cc(C(N)=O)c(OC)cc12 [ZIMLOVISERTIB]

Structure (SMILES): CN(C)C(=O)Cn1cc(-c2ccc(-c3cncc4ccccc34)cc2)cn1
% of control [4]: 84%
